Data on four molecules can be found in patent publication US12617776B2 (priority 2020, dated 2026).

Data set [1] in a line: physchem. As to conditions: water, thermodynamic from solid.
Procedure: The aliquot volumes were typically 10-20 μL. Complete dissolution of the test material was determined by visual inspection. The solubility was estimated from these experiments based on the total solvent used to provide complete dissolution.
Data set [2] in a line: physchem. The protocol: The aliquot volumes were typically 25-100 μL.
From the infrared (IR) transmission data of the sample vials, dissolution and precipitation events were recorded as the point of complete transmission of IR and the onset of turbidity by IR respectively.
Samples were held at ambient temperature for 18 hours to maximize the chance of precipitation. Any recoverable solids were analyzed by XRPD.

The nature of data set [3]: physchem. As to conditions: 25 °C, pH 6.6, water, thermodynamic from solid. The protocol: The mixture was stirred and after 30 minutes a thick suspension was formed. Further aliquots (20 μL) of water were added until a fine suspension was formed. This was stirred at 25° C. overnight and filtered to yield a clear solution. The solution was weighed and evaporated to constant weight to determine the solubility.

Data set [4] is described as follows: Humidity and temperature stressing of AAT-730 free base (XRPD, 1H NMR). The note with it: for XRPD analysis of post-stressed sample (physical form): 7 days. Format: physicochemical. The protocol:
The stability was also tested at a range of elevated relative humidity conditions for 7 days.

Data set [5] is described as follows: Thermal stressing of AAT-730 free base forms (Method 2-9). The note with it: for XRPD after thermal stress: sealed vial, several days. The data set is classed as physicochemical.
Data set [6] is described as follows: Salt screening experiments of AAT-730 (XRPD of isolated solids). As to conditions: salt screen. The protocol: Solutions of the free base in the chosen solvent were added to either solutions of the salt former, or if the salt was not soluble in the solvent, slurries of the salt formers. Any solids which precipitated were recovered and analyzed by XRPD analysis to determine if the solid was crystalline.
The required acid (1 molar equivalent) was added to each HPLC vial and the API stock solution (containing 30 mg of API) was added. The mixtures were stirred at 300 rpm (ambient temperature) for up to 16 hours. Any solids which precipitated were isolated by centrifugation, solvent decanted and solids dried with thin strips of filter paper prior to analysis by XRPD. Any solutions were evaporated to dryness and solids analyzed by XRPD. Gels were either triturated or temperature cycled in MTBE.
API (30 mg), acid co-former (1 mol. eq.) and ethanol (300 μL) were added to HPLC vials and stirred at 40° C. for up to 16 hours. Solids were recovered by centrifugation, solvent decanted and dried with thin strips of filter paper prior to analysis by XRPD. Solutions were evaporated to dryness.
Gels isolated from the screening experiments were triturated in either MTBE or EtOAc to induce precipitation. MTBE or EtOAc (200 μL) was added to the gel and stirred at 40° C. for up to 3 hours prior to cooling to ambient and stirring for up to 48 hours. Any solids were isolated by centrifugation, solvent decanted and solids dried with thin strips of filter paper prior to analysis by XRPD. Any solutions were evaporated to dryness.
Gels isolated from screening experiments were temperature cycled in MTBE according to the following program: • Heating from 20° C. to 40° C. at 0.2° C./minute. • Cooling to 20° C. at 0.1° C./minute. • Stirring speed 400 rpm.
The vials were sealed and the contents milled using a Fritsch Pulverisette 5 planetary mill (30 repetitions of 20 minutes milling at 400 rpm and 20 minutes pause). The resultant material was analyzed using XRPD.
Some of the acid co-formers had pKa values which were suitable for forming either hemi or bis-salts and experiments were carried out using these acids. Crystalline solids were isolated from the experiments using 0.5 mol. eq. of EDSA but these appeared to be composed of polymorphs of the free base and salt formation hadn't occurred with 0.5 mol. eq. of EDSA. The EDSA salt formed with 2 mol. eq. of EDSA yielded solids with the same XRPD pattern as the mono-EDSA salt. Two different crystalline salts were isolated from the reactions with HCl and these may be the mono and bis-HCl salts, however stoichiometry cannot be determined by ^1H NMR. The salt formation with MSA yielded the bis-MSA salt and this is discussed in Example 3-16. The salt isolated with glutaric acid has the same XRPD pattern as the salt isolated with 1 mol. eq. of glutaric acid and is a mono-glutarate salt (Example 3-17). A solid was isolated from the experiment with 2 mol. eq. of sulfuric acid and this may be a sulfate.

A short description of data set [7]: Solubility estimation of AAT-730 by aliquot addition. The data set is classed as physicochemical. The note with it: for Solubility range: 20° C. How it is done: The aliquot volumes were typically 20-200 μL. […] Samples were held at ambient temperature for at least 18 hours to maximize the chance of precipitation. Any recoverable solids were analyzed by XRPD.

Converted amounts (≈) assume the structure as drawn. “Also recorded” adds a separate entry of the source. Structures can show the parent of a compound that is named as a salt. A value given as a limit tells only on which side of the number the result lay.

As to `CN(C)CCn1c(CC(C)(C)C)nc2cc(S(=O)(=O)C3CN(CCO)C3)ccc21` [AAT-730 HCl salt Pattern 1], the solubility (usually the concentration that dissolves in the medium under given conditions) in data set [1] was 164 to 205 mg/mL; in data set [2] (DMSO/water (80/20), ambient temperature, aliquot addition) it was “greater than or equal to 20 mg/mL”.
In the case of `CN(C)CCn1c(CC(C)(C)C)nc2cc(S(=O)(=O)C3CN(CCO)C3)ccc21` [AAT-730 HCl salt Pattern 2], in data set [2] (pH 6, water, thermodynamic from solid, aqueous solubility, water, pH 6-7, aliquot addition), the solubility lay within 197 to 263 mg/mL.
As for `CN(C)CCn1c(CC(C)(C)C)nc2cc(S(=O)(=O)C3CN(CCO)C3)ccc21` [AAT-730 HCl salt, HCl salt of 2-[3-({1-[2-(dimethylamino)ethyl]-2-(2,2-dimethylpropyl)-1H-1,3-benzodiazol-5-yl}sulfonyl)azetidin-1-yl]ethan-1-ol], the solubility in data set [2] (20 °C, aqueous with cosolvent or surfactant or cyclodextrin, thermodynamic from solid, Solubility at 20° C., EtOH/water (50/50), aliquot addition) was 205 to 273 mg/mL; in data set [2] (20 °C, organic solvent or mixture, thermodynamic from solid, Solubility at 20° C., DMSO/water (80/20, Aw at most 0.27), aliquot addition) it was 22 to 25 mg/mL; in data set [2] (20 °C, organic solvent or mixture, thermodynamic from solid, Solubility at 20° C., THF/water (13/1, Aw at most 0.9), aliquot addition), below 20 mg/mL; in data set [2] (20 °C, organic solvent or mixture, thermodynamic from solid, Solubility at 20° C., acetone, aliquot addition) it was below 20 mg/mL; in data set [2] (20 °C, organic solvent or mixture, thermodynamic from solid, Solubility at 20° C., acetone/water (20/1, Aw at most 0.6), aliquot addition) it was below 20 mg/mL; in data set [2] (20 °C, organic solvent or mixture, thermodynamic from solid, Solubility at 20° C., acetonitrile, aliquot addition) it was below 21 mg/mL. For the same molecule, the solubility was below 20 mg/mL in data set [2] (20 °C, organic solvent or mixture, thermodynamic from solid, Solubility at 20° C., dichloromethane, aliquot addition); below 21 mg/mL in data set [2] (20 °C, organic solvent or mixture, thermodynamic from solid, Solubility at 20° C., ethanol, aliquot addition); below 20 mg/mL in data set [2] (20 °C, organic solvent or mixture, thermodynamic from solid, Solubility at 20° C., methanol, aliquot addition); below 20 mg/mL in data set [2] (20 °C, organic solvent or mixture, thermodynamic from solid, Solubility at 20° C., tetrahydrofuran, aliquot addition); at least 20 mg/mL in data set [2] (aqueous with cosolvent or surfactant or cyclodextrin, thermodynamic from solid, solubility); at least 20 mg/mL in data set [2] (organic solvent or mixture, thermodynamic from solid, solubility, DMSO/water (80/20), ambient temperature, aliquot addition). Further, the thermodynamic solubility – broadly, the concentration in solution at equilibrium with solid – in data set [3] is around 220 mg/mL.
`CN(C)CCn1c(CC(C)(C)C)nc2cc(S(=O)(=O)C3CN(CCO)C3)ccc21` [AAT-730, 2-[3-({1-[2-(dimethylamino)ethyl]-2-(2,2-dimethylpropyl)-1H-1,3-benzodiazol-5-yl}sulfonyl)azetidin-1-yl]ethan-1-ol]: in data set [4] (1 week at 25° C./60% RH, 40° C./75% RH, 70° C./75% RH), the “1H NMR analysis of post-stressed samples” value is “no change”. In addition, the “XRPD analysis of post-stressed sample (physical form)” value is recorded as “remained as an anhydrate” in data set [4] (25° C./60% RH); “change in form to the hydrate; also recorded: converted to a hydrate” in data set [4] (40° C./75% RH, listed as AAT-730 free base); “change in form to the hydrate; also recorded: converted to a hydrate” in data set [4] (70° C./75% RH, listed as AAT-730 free base). Moreover, the “XRPD after thermal stress” value in data set [5] (40° C.) and in data set [5] (60° C.) was “Pattern A +” throughout. Moreover, the “physical stability to thermal stressing” value in data set [5] (at the temperatures tested (40 or 60° C.)) is on record as “physically unstable”. In addition, the “XRPD Result” value in data set [6] (EDSA 2 mol. eq., THF, sample CAT0001E-019-04) was “AAT-730 EDSA”; in data set [6] (H2SO4 2 mol. eq., THF, sample CAT0001E-019-08), “possible sulfate Pattern B”; in data set [6] (HCl 2 mol. eq., EtOH, sample CAT0001E-019-05B), “AAT-730 HCl Pattern B”; in data set [6] (HCl 2 mol. eq., THF, sample CAT0001E-019-05) it was “AAT-730 HCl Pattern A**”; in data set [6] (L-aspartic acid 0.5 mol. eq., THF, sample CAT0001E-019-09), “API”; in data set [6] (L-glutamic acid 0.5 mol. eq., THF, sample CAT0001E-019-11), “API”. For the same molecule, the “XRPD Result” value in data set [6] (MSA 2 mol. eq., THF, sample CAT0001E-019-06) is given as “AAT-730 MSA Pattern B”; in data set [6] (glutaric acid 0.5 mol. eq., THF, sample CAT0001E-019-12) it was “AAT-730 glutarate”. Also, the Solubility range in data set [7] (2-propanol, isopropyl alcohol (IPA)) was 81 to 87 mg/mL; in data set [7] (EtOH/water (96/4, Aw at most 0.25)), 313 to 417 mg/mL; in data set [7] (MeOH/water (84/16, Aw at most 0.44)), 638 to 1275 mg/mL; in data set [7] (THF/water (96/4, Aw at most 0.74)) it was 410 to 615 mg/mL; in data set [7] (acetone), 118 to 157 mg/mL; in data set [7] (acetone/water (50/50, Aw at most 0.91)), 618 to 1235 mg/mL. Also, the Solubility range is 145 to 164 mg/mL in data set [7] (acetonitrile (ACN)); 58 to 60 mg/mL in data set [7] (anisole); below 24 mg/mL in data set [7] (cyclohexane); 360 to 504 mg/mL in data set [7] (dichloromethane (DCM)); 242 to 303 mg/mL in data set [7] (dimethyl sulfoxide (DMSO)); 117 to 129 mg/mL in data set [7] (dioxane). The Solubility range in data set [7] (ethanol (EtOH)) was 213 to 256 mg/mL; in data set [7] (ethyl acetate (EtOAc)), 27 to 28 mg/mL; in data set [7] (methanol (MeOH)), above 510 mg/mL; in data set [7] (methyl isobutyl ketone (MIBK)), below 26 mg/mL; in data set [7] (methyl tert-butyl ether (MTBE)) it was below 26 mg/mL; in data set [7] (tetrahydrofuran (THF)), 246 to 492 mg/mL. Besides, in data set [7] (toluene), the Solubility range was below 25 mg/mL. Moreover, the solubility in data set [7] (thermodynamic from solid, water, ambient temperature, aliquot addition, read-out: aqueous solubility) was 367 to 514 mg/mL (≈ 868 to 1220 mM).
